Experimental data as given in US20230114405A1, “Microemulsion Delivery Systems for A Female Hormone Blend with Alcohol-Soluble Species Including Nonderivatized Hormones” (Quicksilver Scientific, Inc., priority 2019, published 2023).

How the values were obtained:
[1] = Solubility of DHEA in ethanol and MCT oil; assay type: physicochemical
Text: An alcohol-soluble species is a species that is insoluble in water and has a greater solubility in ethanol than in medium chain triglyceride (MCT) oils. […] Alcohol-soluble species are preferably pharmacologically active, more preferably are a drug or a supplement, and neither include nor are water. Thus, liquids and solids may exist that technically are soluble in alcohol, but because they also are soluble in water or more or equivalently soluble in MCT oils than in ethanol are not “alcohol-soluble species”.
Solubilized means that the alcohol-soluble species to be delivered is in the solution of the droplet. […] Thus, if either average particle diameters greater than 200 nm or precipitated crystals visible to the naked eye form, the alcohol-soluble species is not solubilized in the solution of the droplet. If an alcohol-soluble species is not solubilized in the solution, it is insoluble in the solution. In many respects, solubility may be thought of as a concentration dependent continuum. For example, the following descriptive terms may be used to express solubility of a solute in a solvent (grams solid/mL of solvent) at 25 degrees Celsius: […]

[2] = Formation of visually clear, shelf-stable MOIW microemulsions with phospholipid and polyethylene glycol derivative; assay type: physicochemical; conditions: used in conjunction with the phospholipid
Text: A shelf-stable microemulsion may be determined in one of two ways. […] Either type of dissociation means that the microemulsion is not shelf-stable.
A visually clear microemulsion has an average particle diameter of 200 nm and less and lacks precipitated solid crystals visible to the naked eye.

## C[C@]12CC[C@H](O)CC1=CC[C@@H]1[C@@H]2CC[C@]2(C)C(=O)CC[C@@H]12 [DHEA, dehydroepiandrosterone (3-beta-hydroxyandrosteron-5-en-17-one)]
[1]; MCT oil
  descriptive solubility level in MCT oil: sparingly soluble
  solubility in MCT oil: approximately 10 mg/mL
[1]; ethanol
  descriptive solubility level in ethanol: freely soluble
  solubility in ethanol: approximately 150 mg/mL

## polysorbate 20
[2]
  phospholipid to polyethylene glycol derivative ratios resulting in visually clear, shelf-stable microemulsions: did not form visually clear, shelf-stable microemulsions
